Laboratory results from patent US10758534B2 (Vertex Pharmaceuticals Incorporated, priority 2014, dated 2020).
Read-outs that look alike come from different tables or passages of the source.

Biological target: T1, F508del (Homo sapiens, UniProt P13569, DEL508-508)
T1 construct: expressed in transfected cells
Test: Protocol 2: FRET membrane potential optical assay (VIPR), identification of correction compounds
Format: cell-based
In short: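 FRET read-out (CC2-DMPE donor, DiSBAC2(3) voltage-sensitive acceptor) of membrane depolarization on VIPR II. Corrector candidates incubated 16 hrs at 37° C. with NIH3T3 cells expressing F508del; temperature correction at 27° C. as positive control; stimulation by 10 μM forskolin, 20 μM genistein, chloride-free gluconate bath.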

[1] = F508del CFTR modulator activity, compounds of Table 1, read-out: EC30
[2] = Table 3, compounds of Table 1 as modulators of CFTR activity, protocol not stated

T1 sequence (P13569 with tags, fused parts or gaps DEL508-508): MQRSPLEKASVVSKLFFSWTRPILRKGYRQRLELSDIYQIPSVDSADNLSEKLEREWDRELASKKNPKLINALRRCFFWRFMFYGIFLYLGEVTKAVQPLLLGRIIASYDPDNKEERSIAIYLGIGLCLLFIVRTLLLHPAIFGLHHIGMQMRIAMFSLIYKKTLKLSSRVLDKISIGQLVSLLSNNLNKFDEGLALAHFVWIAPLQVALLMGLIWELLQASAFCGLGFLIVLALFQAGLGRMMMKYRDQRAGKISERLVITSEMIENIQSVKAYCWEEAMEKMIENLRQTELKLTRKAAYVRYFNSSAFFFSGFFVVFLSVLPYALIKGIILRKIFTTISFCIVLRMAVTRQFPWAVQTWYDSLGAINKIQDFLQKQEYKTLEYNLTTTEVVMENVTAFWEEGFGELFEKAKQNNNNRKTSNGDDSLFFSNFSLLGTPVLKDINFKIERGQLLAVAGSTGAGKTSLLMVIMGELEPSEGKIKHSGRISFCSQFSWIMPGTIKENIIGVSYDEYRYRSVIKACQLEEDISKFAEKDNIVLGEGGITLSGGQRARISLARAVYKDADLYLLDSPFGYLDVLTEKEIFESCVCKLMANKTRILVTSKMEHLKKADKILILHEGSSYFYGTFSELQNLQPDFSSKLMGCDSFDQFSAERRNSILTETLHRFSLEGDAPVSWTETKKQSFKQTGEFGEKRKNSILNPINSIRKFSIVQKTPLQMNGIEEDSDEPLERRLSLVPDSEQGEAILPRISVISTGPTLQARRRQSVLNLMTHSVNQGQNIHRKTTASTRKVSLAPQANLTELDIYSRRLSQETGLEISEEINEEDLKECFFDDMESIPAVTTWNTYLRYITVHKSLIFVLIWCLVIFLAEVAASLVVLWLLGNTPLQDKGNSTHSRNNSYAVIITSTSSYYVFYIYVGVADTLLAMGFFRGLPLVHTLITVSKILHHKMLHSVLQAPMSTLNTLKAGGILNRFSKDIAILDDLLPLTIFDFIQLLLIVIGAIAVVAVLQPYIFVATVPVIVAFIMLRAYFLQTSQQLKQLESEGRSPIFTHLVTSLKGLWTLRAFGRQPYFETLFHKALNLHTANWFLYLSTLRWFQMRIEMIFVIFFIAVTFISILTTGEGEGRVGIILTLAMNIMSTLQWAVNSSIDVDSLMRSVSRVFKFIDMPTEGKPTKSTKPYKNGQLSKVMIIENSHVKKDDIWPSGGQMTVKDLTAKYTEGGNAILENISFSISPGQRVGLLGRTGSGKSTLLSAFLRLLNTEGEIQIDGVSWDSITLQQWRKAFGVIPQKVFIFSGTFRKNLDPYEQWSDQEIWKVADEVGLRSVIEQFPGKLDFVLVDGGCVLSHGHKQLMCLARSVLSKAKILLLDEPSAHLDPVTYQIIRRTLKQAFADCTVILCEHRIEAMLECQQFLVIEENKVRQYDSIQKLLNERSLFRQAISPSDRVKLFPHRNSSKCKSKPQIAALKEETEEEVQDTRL

| Structure (SMILES) | EC30 [1] | EC30 [2] |
| --- | --- | --- |
| C[C@@H]1CN(c2nc3ccccc3cc2C(=O)NS(=O)(=O)c2ccc[nH]c2=O)C(C)(C)C1 [Compound 2405, N-[(2-oxo-1H-pyridin-3-yl)sulfonyl]-2-[(4S)-2,2,4-trimethylpyrrolidin-1-yl]quinoline-3-carboxamide] | < 3000 nM |  |
| Cc1cc(C)c(Cn2c(C(=O)NS(=O)(=O)c3cccc(N)c3)cc3ccc(F)cc32)c(C)c1 [Compound 142, N-(3-aminophenyl)sulfonyl-6-fluoro-1-[(2,4,6-trimethylphenyl)methyl]indole-2-carboxamide] |  | +++ (“+++” means <3 uM) |
| CC(C)Oc1cc(-c2ccc(C(=O)NS(=O)(=O)c3cccc(N)n3)c(N3[C@H](C)CC[C@@H]3C)n2)ccc1Cl [Compound 788, N-[(6-amino-2-pyridyl)sulfonyl]-6-(4-chloro-3-isopropoxy-phenyl)-2-[(2S,5R)-2,5-dimethylpyrrolidin-1-yl]pyridine-3-carboxamide] |  | +++ (“+++” means <3 uM) |
| C[C@@H]1CN(c2nc(-c3ccccc3)ccc2C(=O)NS(=O)(=O)c2ccccc2)C(C)(C)C1 [Compound 2092, N-(benzenesulfonyl)-6-phenyl-2-[(4S)-2,2,4-trimethylpyrrolidin-1-yl]pyridine-3-carboxamide] | < 3000 nM |  |
| CC(C)COc1cc(F)cc(-c2ccc(C(=O)NS(=O)(=O)c3cccc(N)n3)c(N3[C@@H](C)CC[C@@H]3C)n2)c1 [Compound 458, N-[(6-amino-2-pyridyl)sulfonyl]-2-[(2S,5S)-2,5-dimethylpyrrolidin-1-yl]-6-(3-fluoro-5-isobutoxy-phenyl)pyridine-3-carboxamide] |  | +++ (“+++” means <3 uM) |
| Cc1cc(C)c(Oc2nc(-c3ccc(OC(C)C)cc3)ccc2C(=O)NS(=O)(=O)c2ccc[nH]c2=O)c(C)c1 [Compound 494, 6-(4-isopropoxyphenyl)-N-[(2-oxo-1H-pyridin-3-yl)sulfonyl]-2-(2,4,6-trimethylphenoxy)pyridine-3-carboxamide] |  | +++ (“+++” means <3 uM) |
| COc1c(F)cc(F)cc1-c1ccc(C(=O)NS(=O)(=O)c2cccnc2N)c(N2C[C@@H](C)CC2(C)C)n1 [Compound 2006, N-[(2-amino-3-pyridyl)sulfonyl]-6-(3,5-difluoro-2-methoxy-phenyl)-2-[(4S)-2,2,4-trimethylpyrrolidin-1-yl]pyridine-3-carboxamide] | < 3000 nM |  |
| COC1CCCN(c2nc(-c3cc(F)cc(OCC(C)C)c3)ccc2C(=O)NS(=O)(=O)c2ccn[nH]2)C1 (stereo not shown) [Compound 749, 6-(3-fluoro-5-isobutoxy-phenyl)-2-(3-methoxy-1-piperidyl)-N-(1H-pyrazol-5-ylsulfonyl)pyridine-3-carboxamide] |  | +++ (“+++” means <3 uM) |
| Cc1cc(C)c(Oc2nc(-c3cccc(CN4CCOCC4)c3)ccc2C(=O)NS(=O)(=O)c2cccc(N)n2)c(C)c1 [Compound 465, N-[(6-amino-2-pyridyl)sulfonyl]-6-[3-(morpholinomethyl)phenyl]-2-(2,4,6-trimethylphenoxy)pyridine-3-carboxamide] |  | ++ (“++” means between 3 uM and 10 uM) |
| CC(C)COc1cc(F)cc(-c2ccc(C(=O)NS(=O)(=O)c3cccc(N)n3)c(N3CCC(C)C(C)C3)n2)c1 (single isomer, unassigned) [Compound 2062, N-[(6-amino-2-pyridyl)sulfonyl]-2-(3,4-dimethyl-1-piperidyl)-6-(3-fluoro-5-isobutoxy-phenyl)pyridine-3-carboxamide] | < 3000 nM |  |
| CC(C)COc1cc(F)cc(-c2ccc(C(=O)NS(=O)(=O)c3cccc(N)n3)c(N3CC=CC3)n2)c1 [Compound 453, N-[(6-amino-2-pyridyl)sulfonyl]-2-(2,5-dihydropyrrol-1-yl)-6-(3-fluoro-5-isobutoxy-phenyl)pyridine-3-carboxamide] |  | +++ (“+++” means <3 uM) |
| Cc1cc(C)c(Cn2c(C(=O)NS(=O)(=O)c3ccncc3)cc3cc(Cl)ccc32)c(C)c1 [Compound 65, 5-chloro-N-(4-pyridylsulfonyl)-1-[(2,4,6-trimethylphenyl)methyl]indole-2-carboxamide] |  | ++ (“++” means between 3 uM and 10 uM) |
| Cc1ccc(C(=O)NS(=O)(=O)c2cccc(N)n2)c(N2CCC[C@@H](c3ccccc3)C2)n1 [Compound 532, N-[(6-amino-2-pyridyl)sulfonyl]-6-methyl-2-[(3S)-3-phenyl-1-piperidyl]pyridine-3-carboxamide] |  | ++ (“++” means between 3 uM and 10 uM) |
| Cc1c(Cn2nc(C(C)(C)C)cc2C(=O)NS(=O)(=O)c2cccc3ccn(C)c23)cccc1C(F)(F)F [Compound 276, 5-tert-butyl-N-(1-methylindol-7-yl)sulfonyl-2-[[2-methyl-3-(trifluoromethyl)phenyl]methyl]pyrazole-3-carboxamide] |  | +++ (“+++” means <3 uM) |
| Cc1cc(C)c(Oc2nc(-c3cccc(C)c3O)ccc2C(=O)NS(=O)(=O)c2cccc(N)n2)c(C)c1 [Compound 450, N-[(6-amino-2-pyridyl)sulfonyl]-6-(2-hydroxy-3-methyl-phenyl)-2-(2,4,6-trimethylphenoxy)pyridine-3-carboxamide] |  | +++ (“+++” means <3 uM) |
| Cc1cc(C)c(Oc2nc(C(C)(C)C)ccc2C(=O)N[S@](=N)(=O)c2cccc(N)c2)c(C)c1 (single isomer, unassigned) [Compound 53, N-[(3-aminophenyl)sulfonimidoyl]-6-tert-butyl-2-(2,4,6-trimethylphenoxy)pyridine-3-carboxamide] |  | +++ (“+++” means <3 uM) |
| CN(c1ccccc1)c1nc(C(C)(C)C)ccc1C(=O)NS(=O)(=O)c1cccc(N)c1 [Compound 85, N-(3-aminophenyl)sulfonyl-6-tert-butyl-2-(N-methylanilino)pyridine-3-carboxamide] |  | ++ (“++” means between 3 uM and 10 uM) |

The next lines start with the values.

| EC30 [1] | EC30 [2] | Structure (SMILES) |
| --- | --- | --- |
| < 3000 nM |  | CC1CN(c2ncc(-c3ccc(N(C)C)cc3)cc2C(=O)NS(=O)(=O)c2cccc(N)n2)C(C)(C)C1 (stereo not shown) [Compound 2288, N-[(6-amino-2-pyridyl)sulfonyl]-5-(4-dimethylaminophenyl)-2-(2,2,4-trimethylpyrrolidin-1-yl)pyridine-3-carboxamide] |
| 3000 to 10000 nM |  | CC(C)Oc1ccccc1-c1ccc(C(=O)NS(=O)(=O)c2cccnc2N)c(N2C[C@@H](C)CC2(C)C)n1 [Compound 2623, N-[(2-amino-3-pyridyl)sulfonyl]-6-(2-isopropoxyphenyl)-2-[(4S)-2,2,4-trimethylpyrrolidin-1-yl]pyridine-3-carboxamide] |
| 3000 to 10000 nM |  | CC(=O)Nc1cccc(Oc2cccc(S(=O)(=O)NC(=O)c3cccnc3N3CC(C)CC3(C)C)n2)c1 (stereo not shown) [Compound 2433, N—[[6-(3-acetamidophenoxy)-2-pyridyl]sulfonyl]-2-(2,2,4-trimethylpyrrolidin-1-yl)pyridine-3-carboxamide] |
| < 3000 nM |  | CC1CN(c2ncccc2C(=O)NS(=O)(=O)c2cccc(OCc3cccc(Cl)c3)n2)C(C)(C)C1 (stereo not shown) [Compound 2264, N—[[6-[(3-chlorophenyl)methoxy]-2-pyridyl]sulfonyl]-2-(2,2,4-trimethylpyrrolidin-1-yl)pyridine-3-carboxamide] |
| < 3000 nM |  | C[C@@H]1CN(c2nc(-c3ccccc3O)ccc2C(=O)NS(=O)(=O)c2cccnc2N)C(C)(C)C1 [Compound 2257, N-[(2-amino-3-pyridyl)sulfonyl]-6-(2-hydroxyphenyl)-2-[(4S)-2,2,4-trimethylpyrrolidin-1-yl]pyridine-3-carboxamide] |
| < 3000 nM |  | COc1c(C)cccc1-c1ccc(C(=O)NS(=O)(=O)c2cccnc2N)c(N2C[C@@H](C)CC2(C)C)n1 [Compound 2380, N-[(2-amino-3-pyridyl)sulfonyl]-6-(2-methoxy-3-methyl-phenyl)-2-[(4S)-2,2,4-trimethylpyrrolidin-1-yl]pyridine-3-carboxamide] |
| < 3000 nM |  | Cc1cccc(Nc2cccc(S(=O)(=O)NC(=O)c3cccnc3N3CC(C)CC3(C)C)n2)c1 (stereo not shown) [Compound 2572, N—[[6-(3-methylanilino)-2-pyridyl]sulfonyl]-2-(2,2,4-trimethylpyrrolidin-1-yl)pyridine-3-carboxamide] |
| < 3000 nM |  | CC1CN(c2ncc(-c3ccccc3OC(C)C)cc2C(=O)NS(=O)(=O)c2cccc(N)n2)C(C)(C)C1 (stereo not shown) [Compound 2283, N-[(6-amino-2-pyridyl)sulfonyl]-5-(2-isopropoxyphenyl)-2-(2,2,4-trimethylpyrrolidin-1-yl)pyridine-3-carboxamide] |
| < 3000 nM |  | CC1CN(c2ncccc2C(=O)NS(=O)(=O)c2cccc(Oc3cc(F)cc(Cl)c3)n2)C(C)(C)C1 (stereo not shown) [Compound 2719] |
| < 3000 nM |  | CC1CN(c2ncccc2C(=O)NS(=O)(=O)c2cccc(NCCC(=O)OC(C)(C)C)n2)C(C)(C)C1 (stereo not shown) [Compound 2495, tert-butyl 3-[[6-[[2-(2,2,4-trimethylpyrrolidin-1-yl)pyridine-3-carbonyl]sulfamoyl]-2-pyridyl]amino]propanoate] |
| < 3000 nM |  | CCCN(CC1CC1)c1cccc(S(=O)(=O)NC(=O)c2cccnc2N2CC(C)CC2(C)C)n1 (stereo not shown) [Compound 2723] |
| < 3000 nM |  | CC1CN(c2ncccc2C(=O)NS(=O)(=O)c2cccc(OC3CCC4CCCCC4C3)n2)C(C)(C)C1 (stereo not shown) [Compound 2211, N-[(6-decalin-2-yloxy-2-pyridyl)sulfonyl]-2-(2,2,4-trimethylpyrrolidin-1-yl)pyridine-3-carboxamide] |
| < 3000 nM |  | COc1ccc(CNc2cccc(S(=O)(=O)NC(=O)c3cccnc3N3CC(C)CC3(C)C)n2)cc1 (stereo not shown) [Compound 2579, N—[[6-[(4-methoxyphenyl)methylamino]-2-pyridyl]sulfonyl]-2-(2,2,4-trimethylpyrrolidin-1-yl)pyridine-3-carboxamide] |
| < 3000 nM |  | CC1CN(c2ncccc2C(=O)NS(=O)(=O)c2cccc(Oc3ccc4[nH]ccc4c3)n2)C(C)(C)C1 (stereo not shown) [Compound 2003, N—[[6-(1H-indol-5-yloxy)-2-pyridyl]sulfonyl]-2-(2,2,4-trimethylpyrrolidin-1-yl)pyridine-3-carboxamide] |
